Test [1] relates to Madin Darby canine kidney (MDCK) cells. Kind of test: Electrical resistance across MDCK cell monolayers. The following applies: 24 hours; for mean electrical resistance across MDCK cell monolayers: 0.5 mg/ml peptide, relative to the control (medium alone), FIG. 9; for formation of tight junctions in epithelial cells: conclusion from MDCK electrical resistance, 0.5 mg/ml. In kind it is cell-based. How it is done:
Yet another assay evaluates the effect of an occludin modulating agent on the electrical resistance across a monolayer of cells. For example, Madin Darby canine kidney (MDCK) cells can be exposed to the modulating agent dissolved in medium (e.g., at a final concentration of 0.5 mg/ml for a period of 24 hours). The effect on electrical resistance can be measured using standard techniques. This assay evaluates the effect of a modulating agent on tight junction formation in epithelial cells. In general, the presence of 500 μg/mL modulating agent should result in a statistically significant increase or decrease in electrical resistance after 24 hours.
Madin Darby canine kidney (MDCK) cells were plated in Millicells (Millipore, Bedford, Mass.), at a density of 300,000 cells per Millicell, and cultured in Dulbecco's Modified Eagle Medium (DMEM; Sigma, St. Louis, Mo.) containing 5% fetal calf serum (Sigma, St. Louis, Mo.). Monolayers were exposed to the modulating agent dissolved in medium at a final concentration of 0.5 mg/ml for a period of 24 hours. The electrical resistance was measured using the EVOM device (World Precision Instruments, Sarasota, Fla.). At the time of measurement, fresh medium, with or without the modulating agent, may be added to the Millicells.

Test [2] relates to Human aortic endothelial cells (HAEC). Description: Endothelial cell adhesion assay: occludin and VE-cadherin immunolocalization in HAEC monolayers. In kind it is cell-based. The following applies: 1 hour. An excerpt: The effect of a modulating agent on endothelial cell adhesion may generally be evaluated using immunolocalization techniques. Human aortic endothelial cells (HAEC) may be cultured on fibronectin-coated coverslips (fibronectin may be obtained from Sigma, St. Louis, Mo.) according to the procedures of Jaffe et al., J. Clin. Invest. 52:2745-2756, 1973. Briefly, human endothelial cells may be maintained in EGM (endothelial cell growth medium; Clonetics, San Diego, Calif.) and used for experiments at passage 4. Confluent cultures of HAEC may be exposed to either a candidate modulating agent (final concentration 100 μg/ml EGM), or EGM alone for 1 hour. The cells are then be fixed for 30 minutes at 4° C. in 95% ethanol, followed by fixation in acetone for 1 minute at 4° C. (Furuse et al., J. Cell Biol. 123:1777-1788, 1993). After fixation, the cells may be probed with either mouse anti-VE-cadherin antibodies (Hemeris, Sassenage, France; diluted 1:250 in 0.1% dried skim milk powder dissolved in PBS), or rabbit anti-occludin antibodies (Zymed, South San Francisco, Calif.; diluted 1:300 in 0.1% dried skim milk powder dissolved in PBS) for 1 hour at 37° C. The cells may then be washed with 0.1% dried skim milk powder dissolved in PBS (three washes, 5 minutes/wash), and probed with secondary antibodies (donkey anti-mouse Cy3, or donkey anti-rabbit Cy5 diluted 1:250 in 0.1% dried skim milk powder dissolved in PBS; Jackson Immunoresearch Laboratories Inc., Westgrove, Pa.) for 1 hour at 37° C. The cells may then be washed again with in 0.1% dried skim milk powder dissolved in PBS and mounted in a solution composed of 50% glycerol and 50% PBS to which phenylenediamine (Sigma, St. Louis, Mo.) has been added to a final concentration of 1 mg/ml. The sample may then be analyzed using a Bio-Rad MRC 1000 confocal microscope with Laser Sharp software version 2.1T (Bio-Rad, Hercules, Calif.). In general, 0.1 mg/ml of modulating agent results in the appearance of intercellular gaps within the monolayer cultures and a decrease of at least 50% in the surface expression of occludin and VE-cadherin, as compared to monolayer cultures that were not exposed to the modulating agent.
Human aortic endothelial cells (HAEC) were cultured on fibronectin (Sigma, St. Louis, Mo.) according to the procedures of Jaffe et al., J. Clin. Invest. 52:2745-2756, 1973. Cells were maintained in EGM (endothelial cell growth medium; Clonetics, San Diego, Calif.) and used for experiments at passage 4.
HAEC were cultured on fibronectin-coated coverslips. Confluent cultures of HAEC were exposed to linear peptides (final concentration 100 μg/ml EGM), or EGM alone for 1 hour. […] The samples were analyzed using a Bio-Rad MRC 1000 confocal microscope with Laser Sharp software version 2.1T (Bio-Rad, Hercules, Calif.). […]

Test [3] has as its system Adult rats. Kind of test: Miles assay for vascular permeability (Evans blue). It is filed as in vivo. Particulars: rat. How it is done: The ability of an agent to modulate cell adhesion may generally be evaluated in vivo by assessing the effect on vascular permeability utilizing the Miles assay (McClure et al., J. Pharmacological & Toxicological Methods 32:49-52, 1994). Briefly, a candidate modulating agent may be dissolved in phosphate buffered saline (PBS) at a concentration of 100 μg/ml. Adult rats may be given 100 μl subdermal injections of each peptide solution into their shaved backs, followed 15 minutes later by a single 250 μl injection of 1% Evans blue dissolved in PBS into their tail veins. The subdermal injection sites may be visually monitored for the appearance of blue dye. Once the dye appears (about 15 minutes after injection), each subdermal injection site may be excised, weighed, and placed in 1 ml dimethylformamide for 24 hours to extract the dye. The optical density of the dye extracts may then be determined at 620 nm. In general, the injection of 0.1 ml of modulating agent (at a concentration of 0.1 mg/ml) into the backs of rats causes an increase of dye accumulation at the injection sites of at least 50%, as compared to dye accumulation at sites into which PBS has been injected.
The ability of cyclic and linear peptides to increase vascular permeability was assessed utilizing the Miles assay (McClure et al., J. Pharmacological & Toxicological Meth. 32:49-521994). The peptides were dissolved in phosphate buffered saline (PBS) at a concentration of 100 μg/ml. Adult rats were given 100 μl subdermal injections of each peptide solution into their shaved backs, followed 15 minutes later by a single 250 μl injection of 1% Evans blue dissolved in PBS into their tail veins. The subdermal injection sites were visually monitored for the appearance of blue dye. Once the dye appeared (15 minutes after injection), each subdermal injection site was excised, weighed, and placed in 1 ml dimethylformamide for 24 hours to extract the dye. The optical density of the dye extracts was determined at 620 nm. […]

[4] abbreviates: 100 μg/ml peptide, compared to untreated cells.

H-QYLYHYCVVD-NH2 [Peptide 2]: the “mean electrical resistance across MDCK cell monolayers” value in test [1] is reported as “reduce the electrical resistance”.
With H-QYLYHYCVVD-OH [Peptide 3], in test [1], the “mean electrical resistance across MDCK cell monolayers” value is “increased the electrical resistance” and the “formation of tight junctions in epithelial cells” value (from here on “formation of tight junctions”) was “stimulate the formation of tight junctions in epithelial cells”. Further, the “formation of tight junctions” value in test [1] (listed as H-QYLYHYCVVD-COOH) is listed as “stimulating the formation of tight junctions in epithelial cells”. The “adhesion between endothelial cells (retraction of cells from one another)” value in test [2] (100 μg/ml peptide in EGM, vs untreated, FIG. 4B) is on record as “adhesion is decreased”. The “formation of cobblestone-like monolayers” value in test [2] (100 μg/ml peptide) is recorded as “do not form cobblestone-like monolayers”. Moreover, in test [2] (setting [4]), the “surface expression of VE-cadherin” value is given as “greatly reduced” and the “surface expression of occludin” value is reported as “greatly reduced”. The “optical densities of dimethylformamide dye extracts from excised injection sites” value in test [3] (100 μg/ml peptide subdermal, OD at 620 nm, compared with PBS and the N-acetyl/C-amide peptides, FIG. 6, FIG. 8) is “more dye was extracted”. Also, the “accumulation of Evans blue at the injection sites (visual)” value in test [3] (100 μl subdermal injection of 100 μg/ml peptide in PBS, Evans blue i.v. 15 min later, compared with PBS, acetyl-QYLYHYCVVD-NH2 and H-QYLYHYCVVD-NH2 sites, FIG. 5) is on record as “more blue dye has accumulated”.
As for “acetyl-CLYHYC-NH2 (Ac-CLYHYC-NH2; also: cyclic, kind not given here) [Peptide 4]”, the “mean electrical resistance across MDCK cell monolayers” value in test [1] is “increased the electrical resistance”. For the same substance, the “formation of tight junctions” value in test [1] was “stimulate the formation of tight junctions in epithelial cells”; in test [1] (listed as N-Ac-CLYHYC-NH2) it was “stimulating the formation of tight junctions in epithelial cells”.

The record behind these values is patent publication US6797807B1, “Compounds and methods for cancer therapy” (Adherex Technologies, Inc., priority 1997, dated 2004).
